Data from ChEMBL document CHEMBL1141082, “4-Anilino-7,8-dialkoxybenzo[g]quinoline-3-carbonitriles as potent Src kinase inhibitors” (J Med Chem, 2005).

What was measured:
[1] = molecular target: Proto-oncogene tyrosine-protein kinase Src (Homo sapiens, UniProt P12931); test: Inhibitory concentration against Src kinase
[2] = tested on: Mus musculus; test: Plasma levels in nude mouse after administration at a single dose of 50 mg/kg ip after 4 hr; format: functional; conditions: route intraperitoneal
[3] = tested on: Mus musculus; test: Plasma levels in nude mouse after administration at a single dose of 50 mg/kg ip after 24 hours; format: functional; conditions: route intraperitoneal
[4] = tested on: Mus musculus; test: Plasma levels in nude mouse after administration at a single dose of 50 mg/kg ip after 8 hr; format: functional; conditions: route intraperitoneal
[5] = molecular target: Receptor tyrosine-protein kinase erbB-2 (Homo sapiens, UniProt P04626); test: nhibitory concentrations against ErbB-2
[6] = molecular target: Serine/threonine-protein kinase AKT (Homo sapiens, UniProt P31751+Q9Y243+P31749); test: Inhibitory concentration against AKT; format: protein assay
[7] = tested on: Mus musculus; test: Plasma levels in nude mouse after administration at a single dose of 50 mg/kg ip after 0.5 hours; format: functional; conditions: route intraperitoneal
[8] = molecular target: Cyclin-dependent kinase 4 (Homo sapiens, UniProt P11802); test: Inhibitory concentration against CDK4
[9] = organism: Mus musculus; conditions: dose 50 mg/kg; route intraperitoneal
[10] = tested on: Mus musculus; test: Plasma levels in nude mouse after administration at a single dose of 50 mg/kg ip after 4 hours; format: functional; conditions: route intraperitoneal
[11] = tested on: Mus musculus; test: Plasma levels in nude mouse after administration at a single dose of 50 mg/kg ip after 8 hours; format: functional; conditions: route intraperitoneal

Receptor tyrosine-protein kinase erbB-2, sequence (P04626 whole entry): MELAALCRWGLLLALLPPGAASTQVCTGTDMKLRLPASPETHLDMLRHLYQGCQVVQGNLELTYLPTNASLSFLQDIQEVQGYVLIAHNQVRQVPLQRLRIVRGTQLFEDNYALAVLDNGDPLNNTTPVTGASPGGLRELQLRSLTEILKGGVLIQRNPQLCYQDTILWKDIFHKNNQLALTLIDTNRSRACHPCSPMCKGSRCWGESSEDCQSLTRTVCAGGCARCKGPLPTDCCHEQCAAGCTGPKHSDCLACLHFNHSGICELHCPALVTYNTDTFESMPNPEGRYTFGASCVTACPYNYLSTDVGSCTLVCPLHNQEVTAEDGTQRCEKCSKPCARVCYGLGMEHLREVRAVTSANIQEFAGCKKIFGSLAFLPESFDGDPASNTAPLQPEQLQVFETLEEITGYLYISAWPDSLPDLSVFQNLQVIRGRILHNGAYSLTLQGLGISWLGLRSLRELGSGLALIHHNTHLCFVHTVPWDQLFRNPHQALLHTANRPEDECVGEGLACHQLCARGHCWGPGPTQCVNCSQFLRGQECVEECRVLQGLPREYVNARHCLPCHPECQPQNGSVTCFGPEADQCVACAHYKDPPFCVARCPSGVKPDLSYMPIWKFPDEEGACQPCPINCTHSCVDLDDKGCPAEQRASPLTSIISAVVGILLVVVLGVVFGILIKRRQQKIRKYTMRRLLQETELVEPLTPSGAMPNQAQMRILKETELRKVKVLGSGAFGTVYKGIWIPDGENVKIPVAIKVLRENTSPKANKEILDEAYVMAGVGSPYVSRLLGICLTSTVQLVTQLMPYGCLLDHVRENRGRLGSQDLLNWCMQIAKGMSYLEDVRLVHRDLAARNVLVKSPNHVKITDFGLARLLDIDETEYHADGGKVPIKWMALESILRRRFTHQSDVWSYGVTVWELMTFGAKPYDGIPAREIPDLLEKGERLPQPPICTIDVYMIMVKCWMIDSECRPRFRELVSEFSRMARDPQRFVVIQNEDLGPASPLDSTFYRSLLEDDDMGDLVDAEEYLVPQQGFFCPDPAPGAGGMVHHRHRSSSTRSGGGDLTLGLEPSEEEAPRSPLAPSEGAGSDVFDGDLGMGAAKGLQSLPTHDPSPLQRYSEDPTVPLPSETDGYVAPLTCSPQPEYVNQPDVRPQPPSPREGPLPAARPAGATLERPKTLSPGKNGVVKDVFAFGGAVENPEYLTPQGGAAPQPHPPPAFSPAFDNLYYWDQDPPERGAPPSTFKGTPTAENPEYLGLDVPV
Proto-oncogene tyrosine-protein kinase Src, sequence (P12931 2-536 limits assumed): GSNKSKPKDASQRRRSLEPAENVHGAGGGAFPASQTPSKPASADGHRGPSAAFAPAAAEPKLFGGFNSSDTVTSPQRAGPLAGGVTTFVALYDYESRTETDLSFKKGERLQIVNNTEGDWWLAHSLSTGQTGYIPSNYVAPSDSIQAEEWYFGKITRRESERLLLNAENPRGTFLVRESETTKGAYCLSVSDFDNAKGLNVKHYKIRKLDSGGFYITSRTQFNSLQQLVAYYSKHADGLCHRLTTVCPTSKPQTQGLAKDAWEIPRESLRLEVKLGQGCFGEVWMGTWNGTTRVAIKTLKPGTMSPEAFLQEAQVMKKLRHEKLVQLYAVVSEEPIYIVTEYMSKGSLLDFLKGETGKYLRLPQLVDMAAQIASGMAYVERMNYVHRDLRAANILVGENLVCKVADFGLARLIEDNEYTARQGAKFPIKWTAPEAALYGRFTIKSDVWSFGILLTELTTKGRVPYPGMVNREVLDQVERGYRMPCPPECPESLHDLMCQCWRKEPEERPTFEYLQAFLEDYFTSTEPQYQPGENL
Cyclin-dependent kinase 4, sequence (P11802 whole entry): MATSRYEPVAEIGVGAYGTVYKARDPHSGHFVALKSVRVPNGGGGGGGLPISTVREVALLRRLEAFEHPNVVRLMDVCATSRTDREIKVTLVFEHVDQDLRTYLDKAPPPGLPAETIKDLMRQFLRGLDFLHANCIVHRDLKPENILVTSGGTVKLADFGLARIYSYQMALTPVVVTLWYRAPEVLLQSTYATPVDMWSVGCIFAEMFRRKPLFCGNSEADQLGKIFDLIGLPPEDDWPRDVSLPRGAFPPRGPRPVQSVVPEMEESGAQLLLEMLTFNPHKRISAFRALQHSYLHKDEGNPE

| SMILES | IC50 [1] | Activity [2] | Activity [3] | Activity [4] | IC50 [5] | IC50 [6] | Activity [7] | IC50 [8] | Growth inhibiton [9] | Activity [10] | Activity [11] |
| --- | --- | --- | --- | --- | --- | --- | --- | --- | --- | --- | --- |
| COc1cc(Nc2c(C#N)cnc3cc4cc(OCCN5CCOCC5)c(OC)cc4cc23)c(Cl)cc1Cl | 0.46 nM | 1.9 µg/mL | 0.02 µg/mL | 0.3 µg/mL | 2500 nM | > 10000 nM | 2.1 µg/mL | > 10000 nM | 25% | – | – |
| COc1cc(Nc2c(C#N)cnc3cc4cc(OCCN5CCN(C)CC5)c(OC)cc4cc23)c(Cl)cc1Cl | – | – | 0.24 µg/mL | – | – | – | 1.3 µg/mL | – | 20% | 0.63 µg/mL | 0.7 µg/mL |
